Laboratory results published in US12258339B2, “Macrocyclic complexes of alpha-emitting radionuclides and their use in targeted radiotherapy of cancer” (Cornell University, priority 2018, dated 2025).

Tests used:
[1] = Kinetic inertness of La^3+ and Lu^3+ complexes of macropa: transchelation challenge with EDTA/DTPA; type: physicochemical; conditions: in the presence of 1000 equiv of DTPA, pH 7.4, monitored 21 days by UV
Description: Kinetic Inertness of La^3+ and Lu^3+ Complexes of Macropa: Transchelation Challenge. A stock solution of ethylenediaminetetraacetic acid (EDTA, 100 mM) was made in MOPS buffer (prepared as described above) by adjusting the pH of the initial suspension to 6.6 using aqueous NMe4OH.
The preformed La^3+ and Lu^3+ complexes of macropa were challenged with EDTA.
The complex formed in situ between La^3+ and macropa was more rigorously challenged with excess DTPA. A solution containing 500 μM of complex, prepared using the LaCl3 and macropa stock solutions described above, was left to equilibrate for 5 min.
Before assessing its Ac-chelation properties, complex formation was evaluated in situ between macropa and cold La^3+ and Lu^3+ ions.

[2] = In vivo biodistribution of ^225Ac complexes of macropa and DOTA and of ^225Ac(NO3)3 in mice; parameters: species or system C57BL/6 mice
Description: In Vivo Biodistribution of ^225Ac Complexes of Macropa and DOTA. All experiments were approved by the Institutional Animal Care Committee (IACC) of the University of British Columbia and were performed in accordance with the Canadian Council on Animal Care Guidelines. A total of 9 female C57BL/6 mice (6-8 weeks old, 20-25 g) were used for the biodistribution study of each radiometal complex, n=3 for each time point.
Macropa (100 μL of a 1 mg/mL solution in NH4OAc) was diluted with 387 μL of NH4OAc (1 M, pH 7), and an aliquot (203 μL) of ^225Ac(NO3)3 (˜157 kBq) was then added; the pH of this solution was adjusted to 6.5-7 by the addition of 1 M NaOH (210 μL, trace metal grade). After 5 min at ambient temperature, the reaction solution was analyzed by TLC (0.4 M pH 4 sodium citrate as the eluent), which confirmed >95% radiochemical yield. The reaction was allowed to proceed overnight, and the radiochemical yield was again confirmed to be >95% the following morning. At this time, mice were anesthetized by 2% isoflurane, and approximately 100 μL (10-15 kBq) of the [^225Ac(macropa)]^+ complex were injected into the tail vein of each mouse. After injection, mice were allowed to recover and roam freely in their cages, and were euthanized by CO2 inhalation at 15 min, 1 h, or 5 h (n=3 at each time point) post-injection. Blood was collected by cardiac puncture and placed into an appropriate test tube for scintillation counting. Tissues collected included heart, liver, kidneys, lungs, small intestine, large intestine, brain, bladder, spleen, stomach, pancreas, bone, thyroid, tail, urine, and feces. Tissues were weighed and then counted with a calibrated gamma counter (Packard, Cobra II model 5002) using three energy windows: 60-120 keV (window A), 180-260 keV (window B), and 400-480 keV (window C). Counting was performed both immediately after sacrifice and after 7 days; counts were decay corrected from the time of injection and then converted to the percentage of injected dose (% ID) per gram of tissue (% ID/g). […]
The biodistribution studies of [^225Ac(DOTA)]^− and ^225Ac(NO3)3 were carried out as described above for [^225Ac(macropa)]^+, with the following modifications. [^225Ac(DOTA)^− was prepared by adding ^225Ac(NO3)3 (338 μL, 1.1 MBq) to a solution of DOTA (100 μg, 20 mg/mL in H2O) in NH4OAc (467 μL, 0.15 M, pH 7). The pH of the solution was adjusted to 7 using NH4OAc (150 μL, 1 M, pH 7) and the solution was heated at 85° C. for 45 min. RCY>99% was confirmed by TLC as described above. [^225Ac(DOTA)]^− was diluted with saline to a final concentration of 0.05 MBq/100 μL, and 100 μL were injected into each mouse. ^225Ac(NO3)3 (˜58 μL, 0.4 MBq) was diluted and injected in the same manner as [^225Ac(DOTA)]^−. One mouse that was to be euthanized at the 5 h time point in the [^225Ac(DOTA)]^− study died shortly after injection. In the same manner, one mouse that was to be euthanized at the 1 h time point in the ^225Ac(NO3)3 study died.
The in vivo stability [^225Ac(macropa)]^+ was examined by comparing its biodistribution to those of ^225Ac(NO3)3 and [^225Ac(DOTA)]^−. C57BL/6 mice were injected via tail vein with 10-50 kBq of each radiometal complex and were sacrificed after 15 min, 1 h, or 5 h. The amount of ^225Ac retained in each organ was quantified by gamma counting and reported as the percent of injected dose per gram of tissue (% ID/g). The results of these studies are compiled in Tables 1-3. Inadequate stability of an ^225Ac complex leading to the loss of radioisotope in vivo is manifested by the accumulation of ^225Ac in the liver, spleen, and bone of mice.^[11,12,32] […] The biodistribution profile of [^225Ac(macropa)]^+ (FIG. 3B) differs markedly from that of ^225Ac(NO3)3. […] Its biodistribution profile was similar to that of [^225Ac(DOTA)]^− (FIG. 3C), which has been previously shown to retain ^225Ac in vivo.^[7]

[3] = 1 h after i.v. injection, energy window C (400-480 keV)
[4] = 5 h after i.v. injection, energy window A (60-120 keV)

## O=C([O-])c1cccc(CN2CCOCCOCCN(Cc3cccc(C(=O)O)n3)CCOCCOCC2)n1.[La+3] [La^3+ complex]
[1]
  time complex remained intact: up to 21 days

## O=C([O-])CN1CCN(CC(=O)[O-])CCN(CC(=O)[O-])CCN(CC(=O)[O-])CC1.[225Ac+3] [[^225Ac(DOTA)]^−, reference compound]
[2]; [3]
  Organ distribution: brain: 0.0380 % ID/g
[2]; [4]
  Organ distribution: blood: 0.0140 % ID/g
  Organ distribution: lungs: 0.0390 % ID/g

## O=[N+]([O-])[O-].O=[N+]([O-])[O-].O=[N+]([O-])[O-].[225Ac] [^225Ac(NO3)3, reference compound]
[2]; 15 min after i.v. injection, energy window A (60-120 keV)
  Organ distribution: feces: 0.240 % ID/g
[2]; 1 h after i.v. injection, energy window B (180-260 keV)
  Organ distribution: feces: 0.3300 % ID/g
[2]; [3]
  Organ distribution: thyroids: 0.0000 % ID/g
[2]; 5 h after i.v. injection, energy window B (180-260 keV)
  Organ distribution: brain: 0.0290 % ID/g
[2]; 5 h after i.v. injection, energy window C (400-480 keV)
  Organ distribution: brain: 0.0430 % ID/g
[2]; i.v. injection, up to 5 h
  blood clearance and excretion (in words): slow blood clearance and excretion
  organ accumulation (in words): large accumulation in the liver and spleen
